Experimental data as given in patent US10731187B2, “Recombinant strain producing O-aminobenzoate and fermentative production of aniline from renewable resources via 2-aminobenzoic acid” (Covestro Deutschland AG, priority 2014, dated 2020).

Key:
[1] = test system: E. coli; test: Shake flask growth (OD600) with supplementation of toxic substances; assay type: cell-based, Escherichia coli K12; conditions: already low concentrations
Description: Several strains commonly used industrial biotechnology were investigated regarding their natural tolerance towards oAB and to organic solvents in question for later product extraction (e.g. 1-dodecanol or octanol). Furthermore, the influence of the used pH value was investigated. It was known from previous experiments that at least for E. coli the toxicity of aromatic compounds depends strongly on the pH value, probably because protonated acids can much more efficiently penetrate the cell membrane and accordingly their toxicity rises severely. The extraction of oAB in an organic phase is supposed to work best at low pH values, close to the isoelectric point of oAB. The most relevant host strains considered were: Escherichia coli K12, Corynebacterium glutamicum DSM 20300 (=ATCC 13032), Pseudomonas putida KT2440, Bacillus subtilis subsp. 168, Saccharomyces cerevisiae DSM 70449, and Pichia pastoris X33 (DSM 70382).
To investigate the chosen strains towards the mentioned characteristics shake flasks and small scale fermentation experiments were performed and the organisms were supplemented with the toxic substances (aminobenzoates, solvents) at differed concentrations, different pH values, and the behaviour of the strains was studied. […]

[2] = test system: Corynebacterium glutamicum; test: Aminobenzoate stability in fermenter culture supernatants by HPLC-DAD; conditions: HPLC-DAD 254 nm
Description: It had to be excluded that the aminobenzoates were degraded by the organism and therefor the growth is restored after the prolonged lag-phase. To investigate the aminobenzoate stability in the fermenters culture supernatant samples were collected during the fermentation and analyzed by HPLC-DAD (254 nm) (see FIG. 23 and Example 3).
In a further experiment the concentration of oAB was increased to investigate the effect on the C. glutamicum strain. The four fermenters were hereto supplemented with 0 g/L, 15 g/L, 35 g/L and 80 g/L of oAB. […] The rest of the cultivation conditions was kept as described above. […] Cultures supplemented with 15 g/L oAB have shown an extensive lag-phase over 34-48 h before growth was recovered and cells entered the exponential phase (see FIG. 24). […]
An Agilent 1100 series HPLC-DAD system (with diode array detector; Agilent Technologies, Santa Clara (USA)) was used to quantify oAB concentrations in culture supernatants. […] The following gradient with a flow rate of 0.5 mL/min was applied: 0-1 min, 2% B; 1-2 min, 2-10% B; 2-12 min, 10-70% B; 12-23 min, 70-90% B; 23-25 min, 90-98% B, 25-27 min, 98% B; 27-27.5 min, 98%-2% B; 27.5-30 min, 2% B. The oAB concentration was determined from the signal integration at 254 nm (retention time: 18.9 min) using an external calibration curve.

[3] = Solubility of oAB in 1-dodecanol (solid liquid equilibrium); assay type: physicochemical
Description: The solubility of oAB in dodecanol was tested with increasing temperature.

In the case of Nc1ccccc1C(=O)O [oAB, 2-aminobenzoic acid], the toxicity of o-aminobenzoate [1] is reported as “toxic”, the “degradation during cultivation / fermentation” value [2] is reported as “excluded” and the “solubility in 1-dodecanol” value ([3]; 3 wt %, room temperature) is reported as “perfectly soluble”. The “solubility of oAB in 1-dodecanol (concentration)” value (from here on “solubility of oAB in 1-dodecanol”) ([3]; 40 ° C.) was 4.88 wt %, the “solubility of oAB in 1-dodecanol” value ([3]; 68 ° C.) was 13.10 wt % and the “solubility of oAB in 1-dodecanol” value ([3]; 93 ° C.) was 23.05 wt %. The “solubility of oAB in 1-dodecanol” value ([3]; 111 ° C.) was 35.34 wt %, the “solubility of oAB in 1-dodecanol” value ([3]; 119 ° C.) was 44.22 wt % and the “solubility of oAB in 1-dodecanol” value ([3]; 123 ° C.) was 50.93 wt %.
